What was measured:
Type in all cases: biochemical
rDeg-GST-3 [1] = target: T1, rDeg-GST-3 (Dermanyssus gallinae, UniProt A0A0H4FPP8); assay: GSH-CDNB conjugation, A340nm; details: 0-1 mM CDNB, 2 mM GSH, pH 6.5
T1 construct: full-length CDS (669 bp ORF, 222 aa) in pETSUMO; N-terminal His-tag and SUMO fusion kept; E. coli BL21-CodonPlus(DE3)-RIL; HisTrap purified
T1 sequence (A0A0H4FPP8 1-222): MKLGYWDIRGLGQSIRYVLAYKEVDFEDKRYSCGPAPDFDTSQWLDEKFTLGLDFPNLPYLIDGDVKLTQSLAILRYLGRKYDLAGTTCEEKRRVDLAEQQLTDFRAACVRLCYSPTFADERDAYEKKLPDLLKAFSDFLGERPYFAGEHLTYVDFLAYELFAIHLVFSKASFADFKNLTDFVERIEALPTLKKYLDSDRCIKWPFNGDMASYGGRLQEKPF

rDeg-GST-1 [2] = target: T2, rDeg-GST-1 (Dermanyssus gallinae, UniProt A0A0H4FNI7); assay: GSH-CDNB conjugation, A340nm; details: 0-1 mM CDNB, 2 mM GSH, pH 6.5
T2 construct: full-length CDS (735 bp ORF, 244 aa) in pETSUMO; N-terminal His-tag and SUMO fusion kept; E. coli BL21-CodonPlus(DE3)-RIL; HisTrap purified
T2 sequence (A0A0H4FNI7 1-244): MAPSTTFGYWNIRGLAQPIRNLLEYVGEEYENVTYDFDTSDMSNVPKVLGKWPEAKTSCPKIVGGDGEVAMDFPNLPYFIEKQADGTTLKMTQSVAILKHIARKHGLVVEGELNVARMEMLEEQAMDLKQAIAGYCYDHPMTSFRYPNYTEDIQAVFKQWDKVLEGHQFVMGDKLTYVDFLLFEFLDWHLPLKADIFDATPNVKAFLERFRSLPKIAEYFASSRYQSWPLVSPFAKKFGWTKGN

rDeg-GST-2 [3] = target: T3, rDeg-GST-2 (Dermanyssus gallinae, UniProt A0A0H4FKJ9); assay: GSH-CDNB conjugation, A340nm; details: 0-1 mM CDNB, 2 mM GSH, pH 6.5
T3 construct: full-length CDS (633 bp ORF, 210 aa) in pETSUMO; N-terminal His-tag and SUMO fusion kept; E. coli BL21-CodonPlus(DE3)-RIL; HisTrap purified
T3 sequence (A0A0H4FKJ9 1-210): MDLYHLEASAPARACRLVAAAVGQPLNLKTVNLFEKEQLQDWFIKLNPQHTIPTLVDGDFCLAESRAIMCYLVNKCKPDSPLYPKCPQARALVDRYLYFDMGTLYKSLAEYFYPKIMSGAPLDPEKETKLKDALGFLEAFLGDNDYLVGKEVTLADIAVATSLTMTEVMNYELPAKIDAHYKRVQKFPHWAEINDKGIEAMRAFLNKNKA

rDeg-GST-1 [4] = target: T2, rDeg-GST-1; assay: inhibition of GSH-CDNB conjugation, A340nm; details: 100 µM; 1 mM CDNB, 2 mM GSH, pH 6.5 substrate buffer; 10 min preincubation at RT; mode not determined
Source text: inhibition of GSH-CDNB conjugation, A340nm on rDeg-GST-1

rDeg-GST-2 [5] = target: T3, rDeg-GST-2; assay: inhibition of GSH-CDNB conjugation, A340nm; details: 100 µM; 1 mM CDNB, 2 mM GSH, pH 6.5 substrate buffer; 10 min preincubation at RT; mode not determined
Source text: inhibition of GSH-CDNB conjugation, A340nm on rDeg-GST-2

rDeg-GST-3 [6] = target: T1, rDeg-GST-3; assay: inhibition of GSH-CDNB conjugation, A340nm; details: 100 µM; 1 mM CDNB, 2 mM GSH, pH 6.5 substrate buffer; 10 min preincubation at RT; mode not determined
Source text: inhibition of GSH-CDNB conjugation, A340nm on rDeg-GST-3

Row | SMILES | GSH-CDNB conjugation, A340nm (rDeg-GST-3 [1]) | GSH-CDNB conjugation, A340nm (rDeg-GST-1 [2]) | GSH-CDNB conjugation, A340nm (rDeg-GST-2 [3]) | % reduction in Deg-GST activity ± SEM / rDeg-GST-1 (0.3 μg GST/well) (rDeg-GST-1 [4]) [%] | % reduction in Deg-GST activity ± SEM / rDeg-GST-2 (1.5 μg GST/well) (rDeg-GST-2 [5]) [%] | % reduction in Deg-GST activity ± SEM / rDeg-GST-3 (1.5 μg GST/well) (rDeg-GST-3 [6]) [%]
1 | O=[N+]([O-])c1ccc(Cl)c([N+](=O)[O-])c1 [1-chloro-2,4-dinitrobenzene] | All three rDeg-GSTs were enzymically-active molecules capable of catalyzing the conjugation of GSH to CDNB | All three rDeg-GSTs were enzymically-active molecules capable of catalyzing the conjugation of GSH to CDNB | All three rDeg-GSTs were enzymically-active molecules capable of catalyzing the conjugation of GSH to CDNB |  |  | 
2 | CC1(C)C(C=C(Cl)Cl)C1C(=O)OCc1cccc(Oc2ccccc2)c1 (stereo not shown) [Permethrin] |  |  |  | 35.39 ± 0.9 |  | 
3 | CCOP(=S)(OCC)ON=C(C#N)c1ccccc1 [Phoxim] |  |  |  | 56.38 ± 3.0 | 14.8 ± 1.5 | 20.56 ± 2.5

From publication PMC4491418, “Characterisation of Dermanyssus gallinae glutathione S-transferases and their potential as acaricide detoxification proteins” (Parasites & Vectors, 2015)
